These results are taken from patent publication US5906930A, “Para-nitrobenzyl esterases with enhanced activity in aqueous and nonaqueous media” (California Institute of Technology, priority 1998, dated 1999).

What all share (assay): Kinetic assays of purified pNB esterase (ester hydrolysis)
Common to all, as to format: biochemical
Holding throughout (conditions): 0.1M PIPES pH 7.0, 30° C.

Assay [1] addresses T1, Bacillus subtilis para-nitrobenzyl esterase variant 2-19E10 (1-1H9 substitutions + M358V), SEQ. ID. NO. 6 (Bacillus subtilis, UniProt P37967, H322R/M358V/Y370F).
T1 sequence (P37967 1-489 K23L/S59P/K95Q/N150D/S230A/G242S/K246R/S251A/A291S/H322R/V343A/M358V/Y370F/K390E/L463V): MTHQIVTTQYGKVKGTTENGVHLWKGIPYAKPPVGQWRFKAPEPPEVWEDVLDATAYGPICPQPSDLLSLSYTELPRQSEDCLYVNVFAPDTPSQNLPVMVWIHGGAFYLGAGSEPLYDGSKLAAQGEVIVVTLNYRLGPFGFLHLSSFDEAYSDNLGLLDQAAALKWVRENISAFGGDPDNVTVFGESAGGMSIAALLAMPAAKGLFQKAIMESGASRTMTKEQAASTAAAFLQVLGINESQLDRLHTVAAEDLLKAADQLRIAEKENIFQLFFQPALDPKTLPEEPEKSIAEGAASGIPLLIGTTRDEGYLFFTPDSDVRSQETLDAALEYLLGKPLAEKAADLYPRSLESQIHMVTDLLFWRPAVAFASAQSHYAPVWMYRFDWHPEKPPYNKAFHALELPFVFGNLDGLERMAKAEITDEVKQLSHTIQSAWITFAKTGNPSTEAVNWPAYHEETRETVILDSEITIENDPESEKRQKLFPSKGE
Further details: unit not given beside the values. As for the experimental part:
(§1) Bacteria expressing seven pNB esterases, 0-WT (SEQ. ID. NO. 2), 1-1H9, 2-19E10, 3-10C4, 4-38B9, 4-43E7, and 4-54B9, were grown in one liter cultures and the enzymes were purified. These purified enzymes were assayed for their ability to hydrolyze the different ester substrates in the presence of various concentrations of DMF. FIGS. 8a, b and c show the specific reaction rates on pNPA as a function of pNPA substrate concentration for this series of evolved variants from the four generations of mutagenesis and screening. […] The wild type enzyme outperforms 1-1H9 in purely aqueous buffer (FIG. 8a). The actual screening, however, was performed in the presence of DMF, and in 15 and 30% DMF, 1-1H9 has higher specific activity towards pNPA than wild type (FIGS. 8b and 8c). Similar trends are seen for the remaining variants assayed on this substrate. […] In 30% DMF, wild type drops still further relative to the pNB esterase variants. Variants 4-38B9 and 4-43E7, presumably by, virtue of having been screened in DMF for four rounds of mutagenesis, are the best performers in 30% DMF.
(§2) DMF dramatically increases KM while also decreasing kcat. For the LCN substrates, the mutations accumulated during directed evolution mitigate the increased KM. The effects on kcat, however, are more prominent: kcat increases more than 9-fold from wild type to 4-54B9 in 15% DMF, while KM decreases by less than a factor of two on LCN-pNB. […] At substrate concentrations […], increased specific activity will result mainly from improvements in kcat. These improvements are obviously the most useful for enzymes intended to be used for transformations in high substrate concentrations.
(§3) Kinetic assays were performed on three substrates: pNPA, LCN-pNP, and p-nitrobenzyl loracarbef nucleus (LCN-pNB). For pNPA and LCN-pNP substrates, final concentrations varying from 0.0625 mM to 16 mM and 0, 15, and 30% DMF in 0.1M PIPES (Sigma), pH 7.0 were combined with equal volumes of enzyme samples. These samples were mixed simultaneously in a 96 well plate and monitored with the 96 well plate reader. The absorbance values were recorded, linearly regressed, and then used for calculating kinetic parameters. For the LCN-pNB substrate, final concentrations varying from 0.0156 mM to 8.0 mM and 0, 15 and 30% DMF in PIPES, pH 7.0 were combined with enzyme samples in a quartz cuvette and were measured in a spectrophotometer at 289 nm. All assays were measured in triplicate.

Assay [2] has as its target T2, Bacillus subtilis para-nitrobenzyl esterase variant 4-54B9 (3-10C4 substitutions + L334S and one further substitution), SEQ. ID. NO. 14 (Bacillus subtilis, UniProt P37967, H322R/K267R/L144M/L334S/M358V/Y370F).
T2 sequence (P37967 1-489 K23L/S59P/K95Q/L144M/N150D/S230A/G242S/K246R/S251A/K267R/A291S/H322R/L334S/V343A/M358V/Y370F/K390E/L463V): T1 sequence (P37967 1-489 K23L/S59P/K95Q/N150D/S230A/G242S/K246R/S251A/A291S/H322R/V343A/M358V/Y370F/K390E/L463V) with L144M, K267R, L334S
Further details: unit not given beside the values. The procedure: as §1, §2, §3

Assay [3] deals with T3, Bacillus subtilis para-nitrobenzyl esterase variant 4-38B9 (3-10C4 substitutions + I60V), SEQ. ID. NO. 10 (Bacillus subtilis, UniProt P37967, H322R/I60V/L144M/M358V/Y370F).
T3 sequence (P37967 1-489 K23L/S59P/I60V/K95Q/L144M/N150D/S230A/G242S/K246R/S251A/A291S/H322R/V343A/M358V/Y370F/K390E/L463V): T1 sequence (P37967 1-489 K23L/S59P/K95Q/N150D/S230A/G242S/K246R/S251A/A291S/H322R/V343A/M358V/Y370F/K390E/L463V) with I60V, L144M
The procedure:
as §1, §2, §3

Setting [4] is: substrate p-nitrobenzyl loracarbef nucleus, 0% DMF.
Where [5] appears, read: substrate p-nitrobenzyl loracarbef nucleus, 15% DMF.
[6] abbreviates: substrate p-nitrophenyl loracarbef nucleus, 0% DMF.
Setting [7] is: substrate p-nitrophenyl loracarbef nucleus, 15% DMF.
[8] abbreviates: substrate p-nitrophenyl loracarbef nucleus, 30% DMF.

Changes are numbered by the printed parent chain.

For the molecule `NC1C(=O)N2C(C(=O)OCc3ccc([N+](=O)[O-])cc3)=C(Cl)CCC12` (stereo not drawn) [p-nitrobenzyl loracarbef nucleus], the kcat is 4.59 in assay [1] (setting [4]); 1.81 in assay [1] (setting [5]); 18.96 in assay [2] (setting [4]); 6.84 in assay [2] (setting [5]); 8.51 in assay [3] (setting [4]); 1.89 in assay [3] (setting [5]).
As to `NC1C(=O)N2C(C(=O)Oc3ccc([N+](=O)[O-])cc3)=C(Cl)CCC12` (stereo not drawn) [p-nitrophenyl loracarbef nucleus], the kcat in assay [1] (setting [6]) worked out at 0.25; in assay [1] (setting [7]) it was 0.12; in assay [1] (setting [8]) it was 0.023; in assay [2] (setting [6]), 1.44; in assay [2] (setting [7]), 0.93; in assay [2] (setting [8]) it was 0.141. For the same molecule, the results for the kcat in assay [3] (setting [6]), in assay [3] (setting [7]) and in assay [3] (setting [8]) were 0.39, 0.25 and 0.067, respectively.
